From US20040053974A1, “Medicinal compositions containing diuretic and insulin resistance-improving agent” (priority 2000, published 2004)
Marks after values point to notes of the source that are not given here. Blank lines part the entries; values can stand above or below the compound they belong to.

Experiments:
Format in all cases: in vivo, rat
[1] = system: female Wistar rats; experiment: Co-administration of furosemide with compound A: circulating serum volume, heart-weight, edema and hydrothorax (macroscopic observation)
Description: 5-[4-(6-Methoxy-1-methyl-1H-benzimidazol-2-ylmethoxy)benzyl]thiazolidine-2,4-dione hydrochloride (200 mg/kg) was repeatedly and orally administered by gavage for 3 or 7 successive days to female Wistar rats (7 weeks old, Charles River Japan, Inc.) and furosemide (120 mg/kg and 240 mg/kg) was dietarily administered during the period.

[2] = system: Zucker fatty rats; experiment: Co-administration of furosemide or amiloride with compound A for 14 days: blood parameters, heart-weight, circulating serum volume; conditions: for blood dilution (decreases in hematocrit value and the number of red blood cells) caused by compound A / increases in circulating serum volume caused by compound A / increases in heart-weight caused by compound A: orally 14 days, 1 ml/kg of furosemide 100 mg/ml or amiloride 10 mg/ml
Description: Zucker fatty rats (7 weeks old, SLC, Shizuoka, Japan) were grouped as 5 rats a group. Mean body weight, plasma glucose and glyceride levels, hematocrit value, and the number of red blood cells in each group were similar among the groups. The rats were allowed to take food pellets (F2, Funabashi Farm) and water ad libitum. In the control group, the rats were given only food pellets, while the rest of rats were administered 5-[4-(6-methoxy-1-methyl-1H-benzimidazol-2-ylmethoxy)benzyl]thiazolidine-2,4-dione hydrochloride (suspended in 0.5% solution of carboxymethylcellulose (CMC)) at a volume of 1 ml/kg orally by gavage. In the groups of rats administered the above compound with furosemide (100 mg/ml, suspended in 0.5% CMC solution) or amiloride (10 mg/ml, suspended in distilled water), these diuretics were orally administered by gavage for 14 successive days at a volume of 1 ml/kg. After the final administration, the rats were fasted overnight, and their blood was collected from the tail vein with a capillary treated with heparin and EDTA on the 15th day.
Plasma glucose level and blood cell parameters were determined using an automatic analyzer (plasma glucose: Glucoloader GX-T, A&T Corp., blood cell parameters: K-1000, Sysmex Corporation, Kobe, Japan). Triglyceride was detected by the absorbance method with a kit (Triglyceride-E Test Wako, Wako Pure Chemical Industries, Ltd.). Concentrations of insulin and leptin were detected with RIA kits (Rat Insulin RIA Kit, Linco Research Inc.). Furthermore, circulating serum volume was determined by the dilution method using Evans blue.

[3] = system: female Wistar rats; experiment: Heart-weight and circulating serum volume (Evans blue method) after repeated oral administration; conditions: for Ratio against control Heart-Weight / Ratio against control Circulating Serum volume: 200 mg/kg orally by gavage, female Wistar rats
Description: After 5-[4-(6-methoxy-1-methyl-1H-benzimidazol-2-ylmethoxy)benzyl]thiazolidine-2,4-dione hydrochloride (200 mg/kg) was repeatedly and orally administered by gavage for 3 or 7 successive days to female Wistar rats (7 weeks old, Charles River Japan, Inc.), circulating serum volume was determined by Evans blue methods and heart-weight recorded.

[4] = Furosemide 120 mg/kg dietary, co-administered with Compound A 200 mg/kg orally, female Wistar rats
[5] = Furosemide 240 mg/kg dietary, co-administered with Compound A 200 mg/kg orally, female Wistar rats
[6] = furosemide 120 and 240 mg/kg dietary co-administered with compound A 200 mg/kg
[7] = furosemide 120 and 240 mg/kg dietary co-administered with compound A 200 mg/kg, FIG. 1
[8] = co-administered with compound A, Zucker fatty rats
[9] = 7 successive days, n = 12, p < 0.01
[10] = 200 mg/kg orally, after administration for both 3 and 7 days
[11] = Compound A 200 mg/kg orally, Furosemide 0, female Wistar rats
[12] = orally by gavage, 14 successive days, Zucker fatty rats, FIG. 2

- mean weight of thymus [1, 4]: 450.6 mg
- mean weight of thymus [1, 5]: 375.9 mg
SMILES: NS(=O)(=O)c1cc(C(=O)O)c(NCc2ccco2)cc1Cl [Furosemide, furosemide]
- Macroscopic Observation, Edema: Subcutaneous tissue (incidence) [1, 4]: 0/12
- Macroscopic Observation, Edema: brown adipose tissue (incidence) [1, 4]: 12/12
- Macroscopic Observation, Edema: interstitial tissue of thymus (incidence) [1, 4]: 0/12
- Macroscopic Observation, Hydrothorax (incidence) [1, 4]: 2/12
- Macroscopic Observation, Edema: Subcutaneous tissue (incidence) [1, 5]: 0/12
- Macroscopic Observation, Edema: brown adipose tissue (incidence) [1, 5]: 10/12
- Macroscopic Observation, Edema: interstitial tissue of thymus (incidence) [1, 5]: 0/12
- Macroscopic Observation, Hydrothorax (incidence) [1, 5]: 0/12
- Decreases in the number of circulating red blood cells produced by compound A [1, 6]: prevented
- edema and hydrothorax associated with administration of compound A [1, 6]: suppressed
- increases in circulating serum volume elicited by compound A [1, 7]: suppressed
- increases in heart-weight elicited by compound A [1, 7]: suppressed
- blood dilution (decreases in hematocrit value and the number of red blood cells) caused by compound A [2, 8]: suppressed
- increases in circulating serum volume caused by compound A [2, 8]: suppressed
- increases in heart-weight caused by compound A [2, 8]: suppressed

SMILES: N=C(N)NC(=O)c1nc(Cl)c(N)nc1N [amiloride]
- ameliorating effects compared with furosemide ([2]; amiloride at 1/10 the dose of furosemide, co-administered with compound A, Zucker fatty rats): at least as potent as those of furosemide
- blood dilution (decreases in hematocrit value and the number of red blood cells) caused by compound A [2, 8]: suppressed
- increases in circulating serum volume caused by compound A [2, 8]: suppressed
- increases in heart-weight caused by compound A [2, 8]: suppressed
- suppression of side effects caused by insulin sensitizers, relative to diuretic action ([2]; rats co-treated with amiloride and compound A): more potent than those predicted from its diuretic action

- Ratio against control Heart-Weight ([3]; 3 successive days, n = 5-6): 1.03^a)
- Ratio against control Circulating Serum volume ([3]; 3 successive days, n = 5-6, p < 0.05): 1.18^a)*
- Ratio against control Circulating Serum volume [3, 9]: 1.30^b)**
- Ratio against control Heart-Weight [3, 9]: 1.22^b)**
- Circulating serum volume [3, 10]: increased
- heart-weight [3, 10]: increased
- mean weight of thymus [1, 11]: 521.4 mg
- number of circulating red blood cells ([1]; compound A 200 mg/kg orally, female Wistar rats): Decreases
- heart-weight [2, 12]: increases
- hematocrit value (dilution of the blood) [2, 12]: decreases
- number of red blood cells (dilution of the blood) [2, 12]: decreases
SMILES: COc1ccc2nc(COc3ccc(CC4SC(=O)NC4=O)cc3)n(C)c2c1.Cl (stereo not shown) [compound A, 5-[4-(6-methoxy-1-methyl-1H-benzimidazol-2-ylmethoxy)benzyl]thiazolidine-2,4-dione hydrochloride]
- Macroscopic Observation, Edema: Subcutaneous tissue (incidence) [1, 11]: 1/12
- Macroscopic Observation, Edema: brown adipose tissue (incidence) [1, 11]: 12/12
- Macroscopic Observation, Edema: interstitial tissue of thymus (incidence) [1, 11]: 1/12
- Macroscopic Observation, Hydrothorax (incidence) [1, 11]: 6/12
- blood glucose levels ([2]; orally by gavage, 14 successive days, Zucker fatty rats): decreasing
- HOMA-R, an indicator of insulin resistance [2, 12]: remarkably decreased
- triglyceride levels [2, 12]: remarkably decreased
